Measured values reported in article PMC9308496 (Journal of medicinal chemistry, 2021).

What was measured:
[1] = dogs; cited from earlier work
[2] = molecular target: hD2R (human D2LR) (Homo sapiens, UniProt P14416); experiment: Radioligand competition binding at hD2R with [3H]-N-methylspiperone
[3] = molecular target: MOR (SNAP-mMOR) (Mus musculus, UniProt P42866); experiment: BRET antagonism at MOR using GPA in the presence of 100 nM DAMGO; type: cell-based
[4] = molecular target: hD3R (Homo sapiens, UniProt P35462); experiment: Radioligand competition binding at hD3R with [3H]-N-methylspiperone
Chain of hD3R (P35462 whole entry): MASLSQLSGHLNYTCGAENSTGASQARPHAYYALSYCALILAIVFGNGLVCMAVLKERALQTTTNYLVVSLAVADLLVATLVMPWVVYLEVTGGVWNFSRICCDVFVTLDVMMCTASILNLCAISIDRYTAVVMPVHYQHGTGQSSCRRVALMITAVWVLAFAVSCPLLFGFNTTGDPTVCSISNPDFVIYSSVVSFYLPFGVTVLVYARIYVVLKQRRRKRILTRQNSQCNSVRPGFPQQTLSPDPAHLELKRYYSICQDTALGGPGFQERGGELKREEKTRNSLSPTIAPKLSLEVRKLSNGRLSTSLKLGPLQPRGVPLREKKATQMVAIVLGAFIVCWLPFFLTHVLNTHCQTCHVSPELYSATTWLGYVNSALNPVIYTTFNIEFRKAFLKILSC

Chain of hD2R (human D2LR) (P14416 whole entry): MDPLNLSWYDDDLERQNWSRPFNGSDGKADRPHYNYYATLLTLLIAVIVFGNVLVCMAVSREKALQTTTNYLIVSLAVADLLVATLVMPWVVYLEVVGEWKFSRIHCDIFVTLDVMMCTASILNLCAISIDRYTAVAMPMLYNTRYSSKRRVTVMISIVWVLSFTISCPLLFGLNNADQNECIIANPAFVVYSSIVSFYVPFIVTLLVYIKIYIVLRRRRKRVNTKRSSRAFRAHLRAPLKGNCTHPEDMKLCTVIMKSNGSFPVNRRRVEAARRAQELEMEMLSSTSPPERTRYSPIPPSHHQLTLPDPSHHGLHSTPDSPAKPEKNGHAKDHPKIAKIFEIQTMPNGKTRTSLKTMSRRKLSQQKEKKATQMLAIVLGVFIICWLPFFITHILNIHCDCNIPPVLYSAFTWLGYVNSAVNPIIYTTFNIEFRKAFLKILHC
Chain of MOR (SNAP-mMOR) (P42866 whole entry): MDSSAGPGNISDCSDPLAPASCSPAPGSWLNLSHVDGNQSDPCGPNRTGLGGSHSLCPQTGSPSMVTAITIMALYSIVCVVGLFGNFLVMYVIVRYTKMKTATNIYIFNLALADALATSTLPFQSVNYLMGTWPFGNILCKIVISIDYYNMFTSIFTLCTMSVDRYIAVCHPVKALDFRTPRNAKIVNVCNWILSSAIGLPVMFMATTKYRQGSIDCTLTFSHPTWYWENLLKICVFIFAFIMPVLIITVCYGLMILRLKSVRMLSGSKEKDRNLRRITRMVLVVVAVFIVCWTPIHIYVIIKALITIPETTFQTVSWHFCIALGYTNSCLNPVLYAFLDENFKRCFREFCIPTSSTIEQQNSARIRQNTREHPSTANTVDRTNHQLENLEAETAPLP

Compound: Cc1ncoc1-c1nnc(SCCCN2C[C@@H]3C[C@]3(c3ccc(C(F)(F)F)cc3F)C2)n1C [GSK598809]
- potentiation of hypertensive effects of cocaine [1]: potentiation of hypertensive effects observed in dogs produced by cocaine

Compound: CCC(=O)C(CC(C)N(C)C)(c1ccccc1)c1ccccc1 (centres unmarked) [compound 6, methadone]
- D2R Ki [2]: completely inactive

Compound: CCOC(=O)/C=C1\[C@@H]2CCC[C@@]1(c1cccc(O)c1)CCN2CCCCNC(=O)c1cc2ccccc2[nH]1 [compound 57, trans-Ethyl (Z)-2-((1S,5S)-2-(4-(1H-indole-2-carboxamido)butyl)-5-(3-hydroxyphenyl)-2-azabicyclo[3.3.1]nonan-9-ylidene)acetate]
- IC50 [3]: 3520 nM

Compound: O=C(NCCCCN1CC[C@]2(c3cccc(O)c3)CCC[C@H]1[C@H]2O)c1cc2ccccc2[nH]1 [compound 62, N-(4-((1S,5S,9S)-9-Hydroxy-5-(3-hydroxyphenyl)-2-azabicyclo[3.3.1]nonan-2-yl)butyl)-1H-indole-2-carboxamide]
- Ki [4]: 79.6 nM

Compound: CCOC(=O)/C=C1\[C@@H]2CCC[C@@]1(c1cccc(O)c1)CCN2CCN1CCN(c2cccc(Cl)c2Cl)CC1 [compound 65, Ethyl (Z)-2-((1S,5S)-2-(2-(4-(2,3-dichlorophenyl)piperazin-1-yl)ethyl)-5-(3-hydroxyphenyl)-2-azabicyclo[3.3.1]nonan-9-ylidene)acetate]
- Ki [4]: 139 nM
